Marks after values point to notes of the source that are not given here.
Experiments:
[1] = tested on: SW-480 colon adenocarcinoma cells; experiment: Apoptosis by DNA fragmentation (Cell Death Detection ELISA plus); type: cell-based, human; conditions: SW-480 cells, 48 hrs; for EC50: by software or estimated from effective concentration range; for DNA Fragmentation FS (100 μM): fold stimulation FS=ODmax/ODveh
Experimental: Apoptosis was also measured based on the amount of fragmented DNA contained in cell lysates. Briefly, SW-480 colon adenocarcinoma cells were plated in 96-well microtitre plates (“MTP”) at a density of 10K cells/well in 180 μl and incubated for 24 hrs. Cells were then treated with 20 μl aliquots of appropriately diluted compound, and allowed to incubate for an additional 48 hrs.
After the incubation, samples were prepared according to the following steps. The MTP was centrifuged (15 min., 1000 rpm) and the supernatant was carefully removed by fast inversion of the MTP. The cell pellents in each well were then resuspended in ^200 μl lysis buffer and incubated for 45 min. at room temperature to lyse the cells. The lysates were then centrifuged (15 min., 1000 rpm) and 20 μl aliquots of the supernatant (=cytoplasmic fraction) were transferred into the streptavidin coated MTP for analysis. Care was taken not to shake the lysed pellets in the MTP (=cell nucleii containing high molecular weight, unfragmented DNA). Samples were analyzed immediately, because storage at 4 C or −20 C reduces the ELISA-signals.
Samples were then processed according to a DNA fragmentation assay protocol, and dose-response curves were generated based on optical density readings. Quantification of DNA was done by a commercially available photometric enzyme-immunoassay manufactured by Mannheim-Boehringer under the name “Cell Death Detection ELISA^plus”. The assay is based on a quantitative sandwich-enzyme-immunoassay-principle using mouse monoclonal antibodies directed against DNA and histones, respectively. This allows the specific determination of mono and oligonucleosomes in the cytoplasmatic fraction of cell lysates. In brief, the assay procedure is as follows. The sample (cell-lysate, serum, culture-supernatant etc.) is placed into a streptavidin-coated MTP. Subsequently, a mixture of anti-histone-biotin and anti-DNA-POD are added and incubated for 2 hours. During the incubation period, the anti-histone antibody binds to the histone-component of the nucleosomes and simultaneously fixes the immunocomplex to the streptavidin-coated MTP via its biotinylation. Additionally, the anti-DNA-POD antibody reacts with the DNA component of the nucleosomes. After removal of unbound antibodies by a washing step, the amount of nucleosomes is quantified by the POD retained in the immunocomplex. POD is determined photometrically with ABTS® (2,2′-Azino-di[3-ethylbenzthiazolin-sulfonat])* as substrate.
Fold stimulation (FS=ODmax/ODveh), an indicator of apoptotic response, was determined for each compound tested. EC50 values were determined either specifically by data analysis software, or by estimates based on the effective concentration range of each compound (ECR=min. effective dose-min. dose to peak effect). These FS and EC50 values for the tested compounds are listed above in Table 6.

[2] = tested on: human colon carcinoma cell line, SW-480; experiment: Growth inhibition, Sulforhodamine B (SRB) protein binding assay; type: cell-based; conditions: SW-480 cell line, six days continuous exposure
Experimental: These compounds were assayed for their growth inhibitory activity on the human colon carcinoma cell line, SW-480 obtained from ATCC (Rockville, Md.), to ascertain the degree of growth inhibition. Growth inhibition of this cell line is indicative of a benefit on precancerous lesions and neoplasms. The cell line and growth assay employed for these experiments are well characterized, and are used to evaluate the anti-neoplastic properties of NSAIDs. The assay is used by the United States National Cancer Institute in its screening program for new anti-cancer drugs.
Drug stock solutions were made in 100% DMSO then diluted with RPMI media for cell culture testing. All drug solutions were prepared fresh on the day of testing. The cultured cells were obtained at passage #99 and grown in RPMI media supplemented with 5% fetal calf serum, and 2 mM glutamine, 100 U/ml penicillin, 100 U/ml streptomycin, and 0.25 μg/ml amphotericin. The cultures were maintained in a humidified atmosphere of 95% air and 5% CO2 at 37° C. The cultures were passaged at preconfluent densities using a solution of 0.05% trypsin and 0.53 mM EDTA. Cells were plated at 1000 cells/well for 96 well flat-bottom microtiter plates.
Tumor cell growth inhibition was assessed using the Sulforhodamine B (SRB) protein binding assay. In this assay, tumor cells were plated in 96-well plates and treated with drug-containing media for six days (continuous exposure). For each plate, 6 wells were designated as no treatment controls, six wells as vehicle (0.1% DMSO) controls, and the remaining wells for drug dilutions with three wells per drug concentration. At the end of the exposure period, the cells were fixed and stained with sulforhodamine B, a protein binding dye. The dye was then solubilized, and the optical density of the resulting solution was determined on a 96-well plate reader. The mean dye intensity of the treated wells was then divided by the mean dye intensity in the control wells (6 wells of each) to determine the effect of the drug on the cells. Dye intensity is proportional to the number of cells or amount of protein per well. The resultant “percent inhibition” value then represents the degree of growth inhibition caused by the drug.
For each experiment, an IC50 value was determined and used for comparative purposes. This value is equivalent to the concentration of drug needed to inhibit tumor cell growth by 50%. IC50 values were obtained graphically by connecting the mean values for each drug concentration tested. Each experiment included at least three wells per drug concentration. Concentration was plotted on a log scale on the X-axis.

COX I = target: T1, COX I (Ovis aries, UniProt P05979); experiment: Cyclooxygenase (COX) inhibition, purified COX; type: biochemical; conditions: values marked *: 1000 μM test compound; purified COX from ram seminal vesicles
T1 construct: The COX was purified form ram seminal vesicles; from tissue; host or cells: ram seminal vesicles
T1 sequence (P05979 25-600): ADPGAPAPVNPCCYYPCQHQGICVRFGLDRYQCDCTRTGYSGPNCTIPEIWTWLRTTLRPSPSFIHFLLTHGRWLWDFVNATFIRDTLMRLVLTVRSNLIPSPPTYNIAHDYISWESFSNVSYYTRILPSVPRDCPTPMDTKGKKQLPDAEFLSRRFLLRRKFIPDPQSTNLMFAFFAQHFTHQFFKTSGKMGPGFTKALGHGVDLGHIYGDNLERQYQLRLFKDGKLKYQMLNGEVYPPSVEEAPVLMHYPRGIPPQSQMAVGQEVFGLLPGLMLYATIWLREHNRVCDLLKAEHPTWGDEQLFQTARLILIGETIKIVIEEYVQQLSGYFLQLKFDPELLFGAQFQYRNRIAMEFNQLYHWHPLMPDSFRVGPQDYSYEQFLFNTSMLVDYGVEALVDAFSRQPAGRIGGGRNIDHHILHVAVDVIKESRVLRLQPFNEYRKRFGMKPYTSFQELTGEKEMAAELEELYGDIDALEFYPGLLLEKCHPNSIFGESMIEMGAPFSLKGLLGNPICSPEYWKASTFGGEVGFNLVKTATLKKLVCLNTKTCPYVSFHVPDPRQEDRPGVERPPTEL
How it was run: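 Ram seminal vesicle COX, purified, was incubated 2.0 min at 37° C with 100 μM arachidonic acid with or without test compounds. Reactions stopped with TCA; activity read as absorbance at 530 nm.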

[3] = tested on: HT-29 human colon carcinoma cells; experiment: Apoptosis by morphology (acridine orange/ethidium bromide, condensed chromatin); type: cell-based; conditions: HT-29 cells
Experimental: Apoptosis was measured using an assay of cell death based on morphological characteristics of apoptotic cells (i.e., condensed chromatin). Drug preparation and cell culture conditions were the same as for the SRB assay described above, except that HT-29 human colon carcinoma cells were employed/Confluent cultures were established in 12.5 cm^2 flasks by plating 0.5×10^6 cells/flask. The cultures were assayed for apoptosis by fluorescent microscopy following labeling with acridine orange and ethidium bromide. Floating and attached cells were collected by trypsinization and washed three times in PBS. One ml aliquots were centrifuged (3 g). The pellet was resuspended in 25 μl media and 1 μl of a dye mixture containing 100 μg/ml acridine orange and 100 μg/ml ethidium bromide prepared in PBS and mixed gently. Ten μl of mixture was placed on a microscope slide and covered with a 22 mm^2 coverslip and examined under 40×dry objectives using epillumination and filter combination.
An observer blinded to the identity of the treatments scored at least 100 cells per sample. Apoptotic cells were identified by nuclear condensation of chromatin stained by the acridine orange or ethidium bromide.

Row | Structure (SMILES) | IC50 [2] [µM] | COX I % Inhibition (values marked *) (COX I) | EC50 [1] [µM] | DNA Fragmentation FS (100 μM) [1] | Morphology % Apoptotic Cells (1 μM) [3] [%]
1 | COc1cc(/C=C2/C(C)=C(CC(=O)N(CCC#N)Cc3ccccc3)c3cc(F)ccc32)cc(OC)c1OC [Example 37, (Z)-5-fluoro-2-methyl-1-(3,4,5-trimethoxybenzylidene)-3-(N-benzyl-N-(2-cyanoethyl))-indenylacetamide] | > 10 | 38* % | > 10 | 2.5 | <20
2 | COc1cc(/C=C2/C(C)=C(CC(=O)NCCCc3ccccc3)c3cc(F)ccc32)cc(OC)c1OC [Example 40, (Z)-5-fluoro-2-methyl-1-(3,4,5-trimethoxybenzylidene)-3-(N-3-phenylpropyl)-indenylacetamide] | > 10 | 34* % | > 10 | <2 | <20
3 | COc1cc(/C=C2/C(C)=C(CC(=O)NCCCCc3ccccc3)c3cc(F)ccc32)cc(OC)c1OC [Example 41, (Z)-5-fluoro-2-methyl-1-(3,4,5-trimethoxybenzylidene)-3-(N-4-phenylbutyl)-indenylacetamide] | > 10 | 59* % | > 10 | <2 | 30
4 | COc1cc(/C=C2/C(C)=C(CC(=O)N[C@H](C)c3ccccc3)c3cc(F)ccc32)cc(OC)c1OC [Example 42, (Z)-5-fluoro-2-methyl-1-(3,4,5-trimethoxybenzylidene)-3-(N-(R)-1-phenethyl)-indenylacetamide] | 0.69 | 49* % | 3 | 3.8 | <20
5 | COc1cc(/C=C2/C(C)=C(CC(=O)N[C@@H](O)Cc3ccccc3)c3cc(F)ccc32)cc(OC)c1OC [Example 46, (Z)-5-fluoro-2-methyl-1-(3,4,5-trimethoxybenzylidene)-3-(N-(S)-1-hydroxy-2-phenylethyl)-idenylacetamide] | > 10 | 98* % | > 10 | 4.8 | 20
6 | COc1cc(/C=C2/C(C)=C(CC(=O)N(Cc3ccccc3)C(C)O)c3cc(F)ccc32)cc(OC)c1OC (stereo not shown) [Example 47, (Z)-5-fluoro-2-methyl-1-(3,4,5-trimethoxybenzylidene)-3-(N-benzyl-N-(1-hydroxyethyl))-idenylacetamide] | 4.1 | 37* % | 5.7 | 4.4 | 20

Second part, led by results:

Row | IC50 [2] [µM] | COX I % Inhibition (values marked *) (COX I) | Structure (SMILES) | EC50 [1] [µM] | DNA Fragmentation FS (100 μM) [1] | Morphology % Apoptotic Cells (1 μM) [3] [%]
7 | > 10 | 35* % | COc1cc(/C=C2/C(C)=C(CC(=O)N(Cc3ccccc3)c3ccccn3)c3cc(F)ccc32)cc(OC)c1OC [Example 38, (Z)-5-fluoro-2-methyl-1-(3,4,5-trimethoxybenzylidene)-3-(N-benzyl-N-(2-pyridinyl))-indenylacetamide] | > 10 | <2 | 20
8 | > 10 | 59* % | COc1cc(/C=C2/C(C)=C(CC(=O)NCCc3ccccc3)c3cc(F)ccc32)cc(OC)c1OC [Example 39, (Z)-5-fluoro-2-methyl-1-(3,4,5-trimethoxybenzylidene)-3-(N-2-phenylethyl)-indenylacetamide] | > 10 | 2 | 31
9 | > 10 | 36* % | COc1cc(/C=C2/C(C)=C(CC(=O)N[C@@H](C)c3ccccc3)c3cc(F)ccc32)cc(OC)c1OC [Example 43, (Z)-5-fluoro-2-methyl-1-(3,4,5-trimethoxybenzylidene)-3-(N-(S)-1-phenylethyl)-indenylacetamide] | > 10 | <2 | 25
10 | > 10 | 51* % | COc1cc(/C=C2/C(C)=C(CC(=O)NCCCN(C)C)c3cc(F)ccc32)cc(OC)c1OC [Example 44, (Z)-5-fluoro-2-methyl-1-(3,4,5-trimethoxybenzylidene)-3-(N-3-dimethylaminopropyl)-idenylacetamide] | > 10 | 2.7 | 25
11 | > 10 | 56* % | COc1cc(/C=C2/C(C)=C(CC(=O)N[C@H](O)Cc3ccccc3)c3cc(F)ccc32)cc(OC)c1OC [Example 45, (Z)-5-fluoro-2-methyl-1-(3,4,5-trimethoxybenzylidene)-3-(N-(R)-1-hydroxy-2-phenylethyl)-idenylacetamide] | > 10 | 3.4 | 40

Reference: US6403831B1, “Substituted benzylidene indenyl formamides, acetamides and propionamides” (Cell Pathways, Inc., priority 1996, dated 2002)
